Source: patent US20220177477A1 (Central China Normal University, priority 2019, published 2022)

Experiments:
[1] = molecular target: T1, TRKA-F589L (Homo sapiens, UniProt P04629, F589L); assay: TRK kinase mutant inhibition (HTRF), TRKA-F589L; type: biochemical
T1 construct: purchased Carna Biosciences

[2] = molecular target: T2, TRKC (Homo sapiens, UniProt Q16288); assay: In vitro biochemical HTRF KinEASE kinase inhibition, TRKC; settings: wild-type kinase, final ATP 2.526 μmol/L
T2 construct: purchased Carna Biosciences 08-197

[3] = Drug metabolism study in rats, oral administration; settings: rat; for CL / Vz: oral 5 mg/kg; for AUC(0-t) / Cmax / MRT last / Tmax / bioavailability / half-life: plasma, po, 5 mg/kg
[4] = molecular target: T3, TRKC-G623R (Homo sapiens, UniProt Q16288, G623R); assay: TRK kinase mutant inhibition (HTRF), TRKC-G623R; type: biochemical
T3 construct: purchased Carna Biosciences

[5] = molecular target: T4, TRKC-G696A (Homo sapiens, UniProt Q16288, G696A); assay: TRK kinase mutant inhibition (HTRF), TRKC-G696A; type: biochemical
T4 construct: purchased Carna Biosciences

[6] = molecular target: T5, TRKA (Homo sapiens, UniProt P04629); assay: In vitro biochemical HTRF KinEASE kinase inhibition, TRKA; settings: wild-type kinase, final ATP 3.727 μmol/L; read-out: TRKA IC50
T5 construct: purchased Carna Biosciences 08-186

[7] = molecular target: T6, TRKA-G595R (Homo sapiens, UniProt P04629, G595R); assay: TRK kinase mutant inhibition (HTRF), TRKA-G595R; type: biochemical
T6 construct: purchased Carna Biosciences

[8] = molecular target: T7, TRKB (Homo sapiens, UniProt Q16620); assay: In vitro biochemical HTRF KinEASE kinase inhibition, TRKB; settings: wild-type kinase, final ATP 2.56 μmol/L
T7 construct: purchased Carna Biosciences 08-187
Description: The material and the method are as follows: wild-type kinases such as TRKA, TRKB and TRKC, and mutant kinases such as TRKA-G595R, TRKA-G667C, TRKA-F589L, TRKC-G623R and TRKC-G696A, and are derived from Carna Biosciences 08-186, 08-187, 08-197; HTRF KinEASE TKkit (Cisbio 62TKO PEC); 384 well plates (Greiner corporation); ATP (Life technologies PV 3227), MgCl2 (sigma); PHERAstar FS Multifunctional microplate reader (BMG Co.); low speed centrifuge (StaiteXiangyi corporation); incubator (Binder company).
Preparing a compound working solution: the dispensed compounds were removed from the freezer prior to testing and diluted to 100× concentration with pure DMSO; then the compound was diluted to the desired concentration of 4× with deionized water;
Preparation of 1.33× enzyme buffer (enzyme buffer): 5× enzyme buffer (from HTRF kit) was diluted to 1.33× with deionized water and the corresponding ingredients were added at a final concentration of 1.33×: 1.33 mmol/L Dithiothreitol (DTT), 1.33 mmol/L MnCl2, 6.65 mmol/L MgCl2 and 39.9 nmol/L SEB;
Preparation of a kinase working solution: TRKA, TRKB and TRKC were diluted with 1.33× enzyme buffer to the required concentrations of 2× of 0.404 ng/μL, 0.304 ng/μL and 0.236 ng/μL, respectively;
Preparing a substrate working solution: a mixture of TK Substrate Blr diluted to the desired final concentration of 4× (from HTRF kit) and ATP (10 mM) with 1.33× enzyme buffer; the final ATP concentrations for TRKA, TRKB, and TRKC were: 3.727 μmol/L, 2.56 μmol/L and 2.526 μmol/L. The TK Substrate-biotin (from HTRF KinEASE TKkit) final concentrations were all: 0.2 μmol/L.
Preparing a detection working solution: 16.67 μmol/L of Streptavidin-XL665 (Streptavidin-XL 665) were diluted to the desired final concentration of 4× with HTRF test buffer and then mixed with an equal volume of Antibody-europium Cryptate (Antibody-Cryptate) (both from HTRF kits).
An enzyme reaction step: add 4 μL of kinase working solution to each well of a low volume 384 microwell plate along with 4 μL of 1.33× enzyme buffer as a Negative control (Negative); add 2 μl of compound working solution to the wells, while adding 2 μl of […] aqueous solution as a zero compound concentration control (i.e., Positive control, Positive); incubating at 25° C. for 5 min; add 2 μL of substrate working solution to the wells to start the enzymatic reaction, shake the reaction for 30 min at 37° C.
HTRF reagent detection step: adding […] to the hole to terminate the reaction; reacting for 1 h at 25° C.;
Reading of HTRF signal: the PHERAstar FS reading is adopted to detect signals, and the corresponding setting of the instrument is as follows:
For the raw data read out per well, the ratio=665 nm/620 nm;
Calculation of inhibition rate:
Calculation of IC50 values: with the logarithm of the compound concentration as abscissa and the inhibition as ordinate, a non-linear curve was fitted in GraphPad Prism 5: log (inhibitor) vs. response—Variable slope, and calculating the concentration of the compound to be detected, namely IC50, when the enzyme activity inhibition rate is 50%.

[9] = Drug metabolism study in rats, intravenous administration; settings: rat, plasma, iv, 1 mg/kg
[10] = molecular target: T8, TRKA-G667C (Homo sapiens, UniProt P04629, G667C); assay: TRK kinase mutant inhibition (HTRF), TRKA-G667C; type: biochemical
T8 construct: purchased Carna Biosciences

[11] = tested on: Human NSCLC H2228; assay: Antitumor activity on nude mouse xenograft tumor model (Test Example 5); type: in vivo, nude mice (BALB/c); settings: for Partially regression: D14, tumors regressed/animals per group
Description: The efficacy of the compounds of the invention was assessed by a standard murine model of transplanted tumors. Human NSCLC H2228 was cultured, collected, and inoculated subcutaneously to 5-6 weeks old female nude mice (BALB/c, Shanghai Ling Chang Biotech, Ltd.). When the tumor volume reached 100-150 mm3, the animals were randomly divided into a solvent control group (70% PEG-400 in water) and a compound group (6 animals per group).
Animals were subsequently gavaged with the compounds of the examples (corresponding doses, dissolved in 70% PEG-400 in water), starting anywhere from 0 to 13 days after tumor cell inoculation, and were performed once or twice daily in the experiment.
The experimental index is to examine the influence of the compound of the embodiment on the growth of the tumor, and the specific index is T/C % or tumor inhibition rate TGI (%).
Tumor diameters were measured twice weekly with a vernier caliper and tumor volume (V) was calculated as:
V=½×a×b^2 wherein a and b represent length and width, respectively.
T/C(%)=(T−T0)/(C−C0)×100 where T, C is the tumor volume at the end of the experiment; T0, C0 are tumor volumes at the beginning of the experiment.
Tumor inhibition rate (TGI) (%) 100−T/C (%).
When tumor regression occurred, Tumor inhibition rate (TGI) (%) 100−(T−T0)/T0×100
Partial tumor regression (PR) is defined if the tumor shrinks from the initial volume, i.e., T<T0 or C<C0; if the tumor completely disappears, it is defined as complete tumor regression (CR).
Comparison between the two groups of tumor volumes was tested using a two-tailed Student's t test, with P<0.05 defined as statistically significant differences.
BID below indicates twice daily dosing and QD indicates once daily dosing.

T6 sequence (P04629 33-796 G595R): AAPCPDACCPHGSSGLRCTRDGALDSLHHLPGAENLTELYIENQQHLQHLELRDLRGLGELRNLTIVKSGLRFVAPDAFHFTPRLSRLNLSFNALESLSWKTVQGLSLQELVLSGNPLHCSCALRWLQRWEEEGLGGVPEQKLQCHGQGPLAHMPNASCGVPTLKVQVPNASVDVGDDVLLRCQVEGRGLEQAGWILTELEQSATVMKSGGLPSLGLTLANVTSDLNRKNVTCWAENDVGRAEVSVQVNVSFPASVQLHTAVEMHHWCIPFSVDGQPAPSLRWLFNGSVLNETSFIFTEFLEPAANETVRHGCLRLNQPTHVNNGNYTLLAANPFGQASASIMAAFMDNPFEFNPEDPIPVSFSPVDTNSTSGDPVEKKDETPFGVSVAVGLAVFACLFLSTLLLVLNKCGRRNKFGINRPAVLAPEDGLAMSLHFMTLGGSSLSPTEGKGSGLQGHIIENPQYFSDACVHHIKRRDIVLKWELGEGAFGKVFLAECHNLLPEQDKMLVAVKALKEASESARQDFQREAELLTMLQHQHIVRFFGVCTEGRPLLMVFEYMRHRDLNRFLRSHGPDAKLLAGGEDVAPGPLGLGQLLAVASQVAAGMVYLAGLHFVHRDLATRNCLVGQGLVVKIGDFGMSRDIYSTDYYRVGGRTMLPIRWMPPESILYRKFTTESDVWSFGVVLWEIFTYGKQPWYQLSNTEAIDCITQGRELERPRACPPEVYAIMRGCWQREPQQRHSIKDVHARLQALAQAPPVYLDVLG
T8 sequence (P04629 33-796 G667C): as the sequence (P04629 33-796 G595R) above, with R563G, G635C counted along it
T4 sequence (Q16288 32-839 G696A): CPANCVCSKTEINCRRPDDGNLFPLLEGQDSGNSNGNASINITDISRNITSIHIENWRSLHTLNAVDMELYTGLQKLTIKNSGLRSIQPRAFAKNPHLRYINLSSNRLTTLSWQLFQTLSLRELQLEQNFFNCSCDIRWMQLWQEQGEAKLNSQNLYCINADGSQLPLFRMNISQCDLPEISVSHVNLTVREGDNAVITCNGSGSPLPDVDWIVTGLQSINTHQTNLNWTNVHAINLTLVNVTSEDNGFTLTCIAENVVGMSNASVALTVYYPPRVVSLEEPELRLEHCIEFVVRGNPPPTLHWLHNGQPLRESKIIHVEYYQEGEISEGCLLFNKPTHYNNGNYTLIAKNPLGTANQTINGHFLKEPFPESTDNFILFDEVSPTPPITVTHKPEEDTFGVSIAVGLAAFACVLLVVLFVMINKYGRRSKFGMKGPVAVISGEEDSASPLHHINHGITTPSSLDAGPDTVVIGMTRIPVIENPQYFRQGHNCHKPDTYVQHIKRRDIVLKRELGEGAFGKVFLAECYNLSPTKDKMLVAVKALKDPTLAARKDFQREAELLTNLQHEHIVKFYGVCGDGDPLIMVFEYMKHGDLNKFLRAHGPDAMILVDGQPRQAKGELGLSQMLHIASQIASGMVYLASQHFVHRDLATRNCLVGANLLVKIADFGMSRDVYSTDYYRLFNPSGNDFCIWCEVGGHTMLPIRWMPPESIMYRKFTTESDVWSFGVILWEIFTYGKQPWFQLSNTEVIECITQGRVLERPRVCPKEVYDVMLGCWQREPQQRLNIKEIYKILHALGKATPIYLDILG
T3 sequence (Q16288 32-839 G623R): as the sequence (Q16288 32-839 G696A) above, with G592R, A665G counted along it
T5 sequence (P04629 33-796): as the sequence (P04629 33-796 G595R) above, with R563G counted along it
T1 sequence (P04629 33-796 F589L): as the sequence (P04629 33-796 G595R) above, with F557L, R563G counted along it
T2 sequence (Q16288 32-825 isoform Q16288-3 limits assumed): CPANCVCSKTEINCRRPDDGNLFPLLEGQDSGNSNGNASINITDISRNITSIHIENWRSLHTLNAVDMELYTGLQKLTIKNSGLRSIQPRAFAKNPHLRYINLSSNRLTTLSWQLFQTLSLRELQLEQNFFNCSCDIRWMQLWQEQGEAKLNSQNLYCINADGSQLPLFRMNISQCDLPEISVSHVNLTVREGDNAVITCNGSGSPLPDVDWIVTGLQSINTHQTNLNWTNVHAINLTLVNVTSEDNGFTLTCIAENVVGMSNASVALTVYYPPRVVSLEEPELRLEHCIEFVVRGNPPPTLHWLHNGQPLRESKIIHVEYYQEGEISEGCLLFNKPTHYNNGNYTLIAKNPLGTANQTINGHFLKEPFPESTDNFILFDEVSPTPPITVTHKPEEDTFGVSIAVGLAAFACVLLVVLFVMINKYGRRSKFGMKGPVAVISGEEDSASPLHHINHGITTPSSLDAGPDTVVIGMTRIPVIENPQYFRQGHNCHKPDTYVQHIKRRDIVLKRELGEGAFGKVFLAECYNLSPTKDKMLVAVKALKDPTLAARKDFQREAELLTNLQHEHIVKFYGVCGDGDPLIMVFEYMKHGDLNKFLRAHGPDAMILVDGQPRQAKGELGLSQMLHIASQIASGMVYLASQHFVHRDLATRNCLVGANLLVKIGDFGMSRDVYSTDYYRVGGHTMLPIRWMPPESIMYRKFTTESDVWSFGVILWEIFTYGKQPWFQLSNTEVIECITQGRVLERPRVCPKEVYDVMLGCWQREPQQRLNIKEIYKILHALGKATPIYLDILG
T7 sequence (Q16620 32-822): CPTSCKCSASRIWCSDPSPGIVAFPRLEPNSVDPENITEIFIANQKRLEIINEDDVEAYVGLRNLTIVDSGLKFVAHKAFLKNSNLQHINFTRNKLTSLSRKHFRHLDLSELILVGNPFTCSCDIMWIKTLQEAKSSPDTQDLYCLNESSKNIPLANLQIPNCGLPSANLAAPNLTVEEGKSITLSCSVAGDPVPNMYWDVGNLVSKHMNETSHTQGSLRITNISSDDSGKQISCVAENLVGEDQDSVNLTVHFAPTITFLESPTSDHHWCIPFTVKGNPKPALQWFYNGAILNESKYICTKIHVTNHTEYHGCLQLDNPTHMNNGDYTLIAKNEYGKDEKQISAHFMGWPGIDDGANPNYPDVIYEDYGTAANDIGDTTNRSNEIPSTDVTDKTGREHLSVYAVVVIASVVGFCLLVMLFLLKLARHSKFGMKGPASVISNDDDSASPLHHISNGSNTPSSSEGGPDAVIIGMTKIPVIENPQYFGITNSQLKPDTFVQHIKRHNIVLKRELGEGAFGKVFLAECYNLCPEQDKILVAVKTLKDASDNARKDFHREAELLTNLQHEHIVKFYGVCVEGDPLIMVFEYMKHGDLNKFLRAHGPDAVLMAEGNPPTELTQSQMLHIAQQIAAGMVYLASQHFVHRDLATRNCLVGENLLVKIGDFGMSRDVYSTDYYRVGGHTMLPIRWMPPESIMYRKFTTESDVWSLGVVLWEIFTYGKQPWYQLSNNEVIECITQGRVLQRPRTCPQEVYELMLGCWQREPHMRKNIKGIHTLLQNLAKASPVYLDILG

| IC50 [1] [nM] | IC50 [2] [nM] | CL [3] [mL/min/kg] | Vz [3] [L/kg] | AUC(0-t) [3] [ng·h/mL] | Cmax [3] [ng/mL] | MRT last [3] [h] | Tmax [3] [h] | bioavailability [3] [%] | half-life [3] [h] | IC50 [4] [nM] | IC50 [5] [nM] | IC50 [6] [nM] | IC50 [7] [nM] | IC50 [8] [nM] | AUC(0-t) [9] [ng·h/mL] | Cmax [9] [ng/mL] | MRT last [9] [h] | Vd [9] [L/kg] | IC50 [10] [nM] | Compound | other results |
| --- | --- | --- | --- | --- | --- | --- | --- | --- | --- | --- | --- | --- | --- | --- | --- | --- | --- | --- | --- | --- | --- |
| 0.22 | 3.1 | 126 | 48.49 | 650 | 109 | 5.69 | 0.83 | 29.9 | 4.44 | 0.45 | 0.76 | 1.9 | 0.84 | 1.9 | 434 | 260 | 3.62 | 16.9 | 1.76 | C[C@@H](Nc1ccn2ncc(-c3cn[nH]c3)c2n1)c1cc(F)ccc1OCC(F)F [Compound 1, (R)-N-(1-(2-(2,2-difluoroethoxy)-5-fluorophenyl)ethyl)-3-(1H-pyrazol-4-yl) pyrazolo [1,5-a] pyrimidin-5-amine] | clearance [9]: 38.5 mL/min/kg; half-life [9]: 5.1 h |
| 0.44 | 3.9 | 57.7 | 19.23 | 1460 | 283 | 4.27 | 2 | 56.2 | 4 | 0.73 | 1.3 | 2.8 | 0.75 | 3.2 | 518 | 174 | 4.2 | 12.7 | 0.76 | C[C@@H](Nc1ccn2ncc(-c3cn[nH]c3)c2n1)c1cc(F)ccc1OCC(F)(F)F [Compound b8-30, (R)-N-(1-(5-fluoro-2-(2,2,2-trifluoroethoxy)phenyl)ethyl)-3-(1H-pyrazol-4-yl) pyrazolo [1,5-a] pyrimidin-5-amine] | Partially regression ([11]; 25 mg/kg BID D0-13 (50 mg/kg from D8)): 6/6; Tumor growth inhibition value/ D14 ([11]; 25 mg/kg BID D0-13 (dose increased from D8 to 50 mg/kg), read at D14): 127%; Tumor growth inhibition value/ D14 ([11]; 25 mg/kg BID D0-13 (dose increased from D8 to 50 mg/kg), read at D14, listed as compound b8-30): 127%; tumor inhibition rate D7 ([11]; 25 mg/kg BID, read at D7): 95%; Partially regression ([11]; 50 mg/kg QD D0-10 (100 mg/kg from D8)): 3/6; Tumor growth inhibition value/ D14 ([11]; 50 mg/kg QD D0-10 (dose raised from D8 to 100 mg/kg), read at D14): 110%; Tumor growth inhibition value/ D14 ([11]; 50 mg/kg QD D0-10 (dose raised from D8 to 100 mg/kg), read at D14, listed as compound b8-30): 110%; tumor suppression D7 ([11]; 50 mg/kg QD, read at D7): 96%; clearance [9]: 30.3 mL/min/kg; half-life [9]: 4.95 h |

The next lines start with the molecule.

| Compound | IC50 [1] [nM] | IC50 [2] [nM] | CL [3] [mL/min/kg] | Vz [3] [L/kg] | AUC(0-t) [3] [ng·h/mL] | Cmax [3] [ng/mL] | MRT last [3] [h] | Tmax [3] [h] | bioavailability [3] [%] | half-life [3] [h] | IC50 [4] [nM] | IC50 [5] [nM] | IC50 [6] [nM] | IC50 [7] [nM] | IC50 [8] [nM] | AUC(0-t) [9] [ng·h/mL] | Cmax [9] [ng/mL] | MRT last [9] [h] | Vd [9] [L/kg] | IC50 [10] [nM] | other results |
| --- | --- | --- | --- | --- | --- | --- | --- | --- | --- | --- | --- | --- | --- | --- | --- | --- | --- | --- | --- | --- | --- |
| C[C@@H](Nc1ccn2ncc(-c3cnn(CCO)c3)c2n1)c1cc(F)ccc1OCC(F)(F)F [Compound a24-32, (R)-2-(4-(5-((1-(5-fluoro-2-(2,2,2-trifluoroethoxy)phenyl)ethyl)amino)pyrazolo [1,5-a]pyrimidin-3-yl)-1H-pyrazol-1-yl) ethanol] | 0.44 | 2.9 | 105 | 28.2 | 816 | 195 | 3.8 | 0.5 | 47.6 | 3.2 | 1.1 | 0.75 | 3.1 | 0.94 | 1.4 | 343 | 155 | 4.29 | 22.8 | 1.39 | clearance [9]: 47.7 mL/min/kg; half-life [9]: 5.51 h |
| C[C@@H](Nc1ccn2ncc(-c3cn[nH]c3)c2n1)c1cc(F)ccc1OCCF [Compound b7-16, (R)-N-(1-(5-fluoro-2-(2-fluoroethoxy)phenyl)ethyl)-3-(1H-pyrazol-4-yl) pyrazolo [1,5-a] pyrimidin-5-amine] | 0.32 | 3 | – | – | – | – | – | – | – | – | 0.93 | 0.77 | 2.5 | 1.1 | 2.5 | – | – | – | – | 1 | – |
| CC(Nc1ccn2ncc(-c3cn[nH]c3)c2n1)c1cc(F)cc(OCC(F)F)c1 (centres unmarked) [Control Compound C, reference compound] | > 1000 | > 1000 | – | – | – | – | – | – | – | – | > 1000 | > 1000 | > 1000 | > 1000 | > 1000 | – | – | – | – | > 1000 | – |
| CC(Nc1ccn2ncc(-c3cn[nH]c3)c2n1)c1ccc(OCC(F)F)c(F)c1 (centres unmarked) [Control Compound D, reference compound] | > 1000 | > 1000 | – | – | – | – | – | – | – | – | > 1000 | > 1000 | > 1000 | > 1000 | > 1000 | – | – | – | – | > 1000 | – |
